Paper PMC11995724, “Antibiotic target discovery by integrated phenotypic and activity-based profiling of electrophilic fragments” (Cell chemical biology, 2025)

Assay: in vitro
Conditions: human, hek293t cells
`C=CC(=O)N1CCC(C(=O)Nc2[nH]nc(C(F)(F)F)c2C)CC1` [1-O04, N-[4-methyl-3-(trifluoromethyl)-1H-pyrazol-5-yl]-1-(prop-2-enoyl)piperidine-4-carboxamide] gave a viability at 48 h, 25 µM of 113%.
`C=CC(=O)N1CCOC(c2noc(C(C)C)n2)C1` (stereo not drawn) [1-O05, 1-{2-[5-(propan-2-yl)-1,2,4-oxadiazol-3-yl]morpholin-4-yl}prop-2-en-1-one] gave a viability at 48 h, 25 µM of 87%.
For `C=CC(=O)Nc1nn(C2CCCC2)c(C)c1Cl` [1-O06, N-(4-chloro-1-cyclopentyl-5-methyl-1H-pyrazol-3-yl)prop-2-enamide], the viability at 48 h, 25 µM was 78.2%.
In the case of `C=CC(=O)NCc1ccno1` [1-O07, N-[(1,2-oxazol-5-yl)methyl]prop-2-enamide], the viability at 48 h, 25 µM is reported as 68.4%.
`C=CC(=O)NC1CCC(c2nc(CC)no2)CC1` (stereo not drawn) [1-O08, N-[4-(3-ethyl-1,2,4-oxadiazol-5-yl)cyclohexyl]prop-2-enamide] showed a viability at 48 h, 25 µM of 92.2%.
`C=CC(=O)Nc1cnn(-c2ccncc2)c1C(F)F` [1-O09, N-[5-(difluoromethyl)-1-(pyridin-4-yl)-1H-pyrazol-4-yl]prop-2-enamide] gave a viability at 48 h, 25 µM of 67.8%.
With `C=CC(=O)Nc1ccccc1Cl` [1-O10, N-(2-chlorophenyl)prop-2-enamide] the viability at 48 h, 25 µM was 63%.
Work on `C=CC(=O)Nc1ccc2c(c1)CCO2` [1-O11, N-(2,3-dihydro-1-benzofuran-5-yl)prop-2-enamide] yielded a viability at 48 h, 25 µM of 87.8%.
Work on `C=CC(=O)NCC(F)(F)c1cccnc1` [1-O12, N-[2,2-difluoro-2-(pyridin-3-yl)ethyl]prop-2-enamide] yielded a viability at 48 h, 25 µM of 111%.
In the case of `C=CC(=O)Nc1ccc(C)cc1S(=O)(=O)N1CCOCC1` [1-O13, N-[4-methyl-2-(morpholine-4-sulfonyl)phenyl]prop-2-enamide], the viability at 48 h, 25 µM is reported as 74.9%.
In the case of `C=CC(=O)NCc1nnc(C(F)(F)F)s1` [1-O14, N-{[5-(trifluoromethyl)-1,3,4-thiadiazol-2-yl]methyl}prop-2-enamide], the viability at 48 h, 25 µM is reported as 131%.
`C=CC(=O)NC1(c2ccccc2)CCCC1` [1-O15, N-(1-phenylcyclopentyl)prop-2-enamide] gave a viability at 48 h, 25 µM of 95.6%.
In the case of `C=CC(=O)NCC1CCS(=O)(=O)C1(C)C` (stereo not drawn) [1-O16, N-[(2,2-dimethyl-1,1-dioxo-1lambda6-thiolan-3-yl)methyl]prop-2-enamide], the viability at 48 h, 25 µM is reported as 103%.
With `C=CC(=O)N(Cc1ccccc1)C1CCOc2ccc(OC)cc21` (stereo not drawn) [1-O17, N-benzyl-N-(6-methoxy-3,4-dihydro-2H-1-benzopyran-4-yl)prop-2-enamide] the viability at 48 h, 25 µM was 71.6%.
`C=CC(=O)NCc1ccnn1CC(F)(F)F` [1-O18, N-{[1-(2,2,2-trifluoroethyl)-1H-pyrazol-5-yl]methyl}prop-2-enamide] showed a viability at 48 h, 25 µM of 168%.
`C=CC(=O)NC[C@@H]1C[C@H]1C1CCCCC1` [1-O19, N-{[(1R,2S)-2-cyclohexylcyclopropyl]methyl}prop-2-enamide] showed a viability at 48 h, 25 µM of 106%.
For `C=CC(=O)Nc1ccc(C(F)C(F)(F)F)cc1` (stereo not drawn) [1-O20, N-[4-(1,2,2,2-tetrafluoroethyl)phenyl]prop-2-enamide], the viability at 48 h, 25 µM was 85.4%.
In the case of `C=CC(=O)N1CCC(c2nc(C(=O)O)cs2)CC1` [1-O21, 2-[1-(prop-2-enoyl)piperidin-4-yl]-1,3-thiazole-4-carboxylic acid], the viability at 48 h, 25 µM is reported as 96.9%.
`C=CC(=O)NC(C1CCC1)C1CCOC1` (stereo not drawn) [1-O22, N-[cyclobutyl(oxolan-3-yl)methyl]prop-2-enamide] gave a viability at 48 h, 25 µM of 113%.
`C=CC(=O)N1CCc2cc(C(N)=O)ccc21` [1-P03, 1-(prop-2-enoyl)-2,3-dihydro-1H-indole-5-carboxamide] showed a viability at 48 h, 25 µM of 172%.
Work on `C=CC(=O)N(Cc1ccccc1)Cc1ccccc1` [1-P04, N,N-dibenzylprop-2-enamide] yielded a viability at 48 h, 25 µM of 60.4%.
For `C=CC(=O)NC1CCC(c2nc(-c3ccccc3)n[nH]2)CC1` (stereo not drawn) [1-P05, N-[4-(3-phenyl-1H-1,2,4-triazol-5-yl)cyclohexyl]prop-2-enamide], the viability at 48 h, 25 µM was 104%.
With `C=CC(=O)Nc1ccc(C(N)=O)cc1C` [1-P06, 3-methyl-4-(prop-2-enamido)benzamide] the viability at 48 h, 25 µM was 84.8%.
With `C=CC(=O)N[C@H]1CCCC[C@H]1n1cc(C(C)(C)O)nn1` [1-P07, N-[(1S,2R)-2-[4-(2-hydroxypropan-2-yl)-1H-1,2,3-triazol-1-yl]cyclohexyl]prop-2-enamide] the viability at 48 h, 25 µM was 128%.
In the case of `C=CC(=O)NCC1(OC)CCC(C)CC1` (stereo not drawn) [1-P08, N-[(1-methoxy-4-methylcyclohexyl)methyl]prop-2-enamide], the viability at 48 h, 25 µM is reported as 80.5%.
`C=CC(=O)N(Cc1cn(C)nc1-c1ccc(F)cc1)C1CC(C)C1` (stereo not drawn) [1-P09, N-{[3-(4-fluorophenyl)-1-methyl-1H-pyrazol-4-yl]methyl}-N-(3-methylcyclobutyl)prop-2-enamide] gave a viability at 48 h, 25 µM of 64.1%.
`C=CC(=O)NCC(C)c1ncc(C)s1` (stereo not drawn) [1-P10, N-[2-(5-methyl-1,3-thiazol-2-yl)propyl]prop-2-enamide] showed a viability at 48 h, 25 µM of 43.9%.
For `C=CC(=O)N1CCN(C(=O)c2ccco2)CC1` [1-P11, 1-[4-(furan-2-carbonyl)piperazin-1-yl]prop-2-en-1-one], the viability at 48 h, 25 µM was 88.3%.
In the case of `C=CC(=O)Nc1onc(C2CCCCC2)c1CC(C)C` [1-P12, N-[3-cyclohexyl-4-(2-methylpropyl)-1,2-oxazol-5-yl]prop-2-enamide], the viability at 48 h, 25 µM is reported as 0.308%.
Compound `C=CC(=O)N(Cc1cn(C)nc1C)c1ccc2c(c1)OCCO2` [1-P13, N-(2,3-dihydro-1,4-benzodioxin-6-yl)-N-[(1,3-dimethyl-1H-pyrazol-4-yl)methyl]prop-2-enamide] has a viability at 48 h, 25 µM of 81.5%.
Work on `C=CC(=O)Nc1ncc(-c2cccc(C)c2)s1` [1-P14, N-[5-(3-methylphenyl)-1,3-thiazol-2-yl]prop-2-enamide] yielded a viability at 48 h, 25 µM of 63.6%.
Work on `C=CC(=O)N(Cc1cc(C)c2ncccc2c1)C(C)C1CCCO1` (stereo not drawn) [1-P15, N-[(8-methylquinolin-6-yl)methyl]-N-[1-(oxolan-2-yl)ethyl]prop-2-enamide] yielded a viability at 48 h, 25 µM of 93.5%.
With `C=CC(=O)N1CCn2nccc21` [1-P16, 1-{1H,2H,3H-pyrazolo[1,5-a]imidazol-1-yl}prop-2-en-1-one] the viability at 48 h, 25 µM was 56.6%.
`C=CC(=O)N1CSCC1C(=O)NCC1CC1` (stereo not drawn) [1-P17, N-(cyclopropylmethyl)-3-(prop-2-enoyl)-1,3-thiazolidine-4-carboxamide] showed a viability at 48 h, 25 µM of 105%.
`C=CC(=O)N1CC(OCc2nc(C)no2)C1` [1-P18, 1-{3-[(3-methyl-1,2,4-oxadiazol-5-yl)methoxy]azetidin-1-yl}prop-2-en-1-one] gave a viability at 48 h, 25 µM of 67.7%.
In the case of `C=CC(=O)NCc1ccc(N2CCCC(C(N)=O)C2)cc1` (stereo not drawn) [1-P19, 1-{4-[(prop-2-enamido)methyl]phenyl}piperidine-3-carboxamide], the viability at 48 h, 25 µM is reported as 126%.
For `C=CC(=O)N1CCOC(c2ccccc2Cl)C1` (stereo not drawn) [1-P20, 1-[2-(2-chlorophenyl)morpholin-4-yl]prop-2-en-1-one], the viability at 48 h, 25 µM was 72.7%.
`C=CC(=O)NCCC1=CCCCCC1` [1-P21, N-[2-(cyclohept-1-en-1-yl)ethyl]prop-2-enamide] gave a viability at 48 h, 25 µM of 93.5%.
Work on `C=CC(=O)N1CCCC(C2CCN(C(=O)c3cc(C)nn3C)CC2)C1` (stereo not drawn) [1-P22, 1-[1'-(1,3-dimethyl-1H-pyrazole-5-carbonyl)-[3,4'-bipiperidin]-1-yl]prop-2-en-1-one] yielded a viability at 48 h, 25 µM of 55.9%.
`C=CC(=O)NCCn1nnnc1C` [2-A03, N-[2-(5-methyl-1H-1,2,3,4-tetrazol-1-yl)ethyl]prop-2-enamide] showed a viability at 48 h, 25 µM of 110%.
With `C=CC(=O)Nc1ccnc(OC2CCCCC2)c1` [2-A04, N-[2-(cyclohexyloxy)pyridin-4-yl]prop-2-enamide] the viability at 48 h, 25 µM was 0.76%.
Work on `C=CC(=O)NC(C)c1cnc(C(F)(F)F)s1` (stereo not drawn) [2-A05, N-{1-[2-(trifluoromethyl)-1,3-thiazol-5-yl]ethyl}prop-2-enamide] yielded a viability at 48 h, 25 µM of 73.5%.
Work on `C=CC(=O)N1CCC(Cc2nc(C3CCC3)no2)CC1` [2-A06, 1-{4-[(3-cyclobutyl-1,2,4-oxadiazol-5-yl)methyl]piperidin-1-yl}prop-2-en-1-one] yielded a viability at 48 h, 25 µM of 93%.
`C=CC(=O)N(Cc1c2c(nn1C)CCOC2)c1cc(C)cc(C)c1` [2-A07, N-(3,5-dimethylphenyl)-N-({2-methyl-2H,4H,6H,7H-pyrano[4,3-c]pyrazol-3-yl}methyl)prop-2-enamide] showed a viability at 48 h, 25 µM of 57.4%.
`C=CC(=O)N1CCC(C(=O)Nc2ncc(CCO)s2)CC1` [2-A08, N-[5-(2-hydroxyethyl)-1,3-thiazol-2-yl]-1-(prop-2-enoyl)piperidine-4-carboxamide] gave a viability at 48 h, 25 µM of 79.1%.
`C=CC(=O)NCCN(C)S(=O)(=O)c1cccs1` [2-A09, N-[2-(N-methylthiophene-2-sulfonamido)ethyl]prop-2-enamide] showed a viability at 48 h, 25 µM of 129%.
`C=CC(=O)NC(c1ccc(C)cc1)C(C)S(C)(=O)=O` (stereo not drawn) [2-A10, N-[2-methanesulfonyl-1-(4-methylphenyl)propyl]prop-2-enamide] showed a viability at 48 h, 25 µM of 100%.
For `C=CC(=O)NCC1(c2nc(-c3ccccc3)cs2)CCOCC1` [2-A11, N-{[4-(4-phenyl-1,3-thiazol-2-yl)oxan-4-yl]methyl}prop-2-enamide], the viability at 48 h, 25 µM was 93.1%.
Compound `C=CC(=O)NCc1ccc(C(=O)N2CCC(NC(C)=O)CC2)cc1` [2-A12, N-{[4-(4-acetamidopiperidine-1-carbonyl)phenyl]methyl}prop-2-enamide] has a viability at 48 h, 25 µM of 90.5%.
Work on `C=CC(=O)N(Cc1c(F)cc(C)cc1Cl)C1CCCOCC1` (stereo not drawn) [2-A13, N-[(2-chloro-6-fluoro-4-methylphenyl)methyl]-N-(oxepan-4-yl)prop-2-enamide] yielded a viability at 48 h, 25 µM of 99%.
With `C=CC(=O)NCCc1ccc(S(C)(=O)=O)cc1` [2-A14, N-[2-(4-methanesulfonylphenyl)ethyl]prop-2-enamide] the viability at 48 h, 25 µM was 93.7%.
For `C=CC(=O)N1CC[C@H](Oc2ccc(F)cc2)C1` [2-A15, 1-[(3S)-3-(4-fluorophenoxy)pyrrolidin-1-yl]prop-2-en-1-one], the viability at 48 h, 25 µM was 185%.
Compound `C=CC(=O)N1CC(S(=O)(=O)N2CCOCC2)C1` [2-A16, 1-[3-(morpholine-4-sulfonyl)azetidin-1-yl]prop-2-en-1-one] has a viability at 48 h, 25 µM of 74%.
`C=CC(=O)Nc1cc(C)n(CC(C)c2nnc3n2CCCCC3)n1` (stereo not drawn) [2-A17, N-[5-methyl-1-(2-{5H,6H,7H,8H,9H-[1,2,4]triazolo[4,3-a]azepin-3-yl}propyl)-1H-pyrazol-3-yl]prop-2-enamide] showed a viability at 48 h, 25 µM of 175%.
